Results from PubChem BioAssay AID200 (DTP/NCI, 2004).
“And” between values parts separate entries of the source, which are not always exact repeats. Equal values may be shown once. Toxic doses and inconclusive results are not listed.

Test system: B6C3F1 mice, B16 melanoma ip, median survival T/C
Experiment: NCI In Vivo Anticancer Drug Screen. Data for tumor model B16 Melanoma (intraperitoneal) in B6C3F1 mice
Settings: endpoint: median survival time, higher = longer survival
In short: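 Antitumor effect was judged in mice with transplanted tumors by dividing the treated group's survival measure by that of vehicle controls.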

[1] = dose: 1.56 mg/kg/injection, schedule: Q01DX009 (ip), vehicle: water
[2] = dose: 12.5 mg/kg/injection, schedule: Q01DX009 (ip), vehicle: water
[3] = dose: 12.5 mg/kg/injection, schedule: Q01DX009 (ip), vehicle: saline
[4] = dose: 25.0 mg/kg/injection, schedule: Q01DX009 (ip), vehicle: saline
[5] = dose: 50.0 mg/kg/injection, schedule: Q01DX009 (ip), vehicle: saline
[6] = dose: 100.0 mg/kg/injection, schedule: Q01DX009 (ip), vehicle: saline
[7] = dose: 12.5 mg/kg/injection, schedule: Q01DX009 (ip), vehicle: saline with Tween-80
[8] = dose: 25.0 mg/kg/injection, schedule: Q01DX009 (ip), vehicle: saline with Tween-80
[9] = dose: 50.0 mg/kg/injection, schedule: Q01DX009 (ip), vehicle: saline with Tween-80
[10] = dose: 100.0 mg/kg/injection, schedule: Q01DX009 (ip), vehicle: saline with Tween-80
[11] = dose: 200.0 mg/kg/injection, schedule: Q01DX009 (ip), vehicle: saline with Tween-80
[12] = dose: 25.0 mg/kg/injection, schedule: Q01DX009 (ip), vehicle: Klucel (hydroxypropylcellulose) (HPC)
[13] = dose: 100.0 mg/kg/injection, schedule: Q01DX009 (ip), vehicle: Klucel (hydroxypropylcellulose) (HPC)
[14] = dose: 200.0 mg/kg/injection, schedule: Q01DX009 (ip), vehicle: Klucel (hydroxypropylcellulose) (HPC)

With `O=P(O)(NCCCl)NCCCl` the T/C (dose: 25.0 mg/kg/injection, schedule: Q01DX001 (ip), vehicle: saline with Tween-80) was 114 % of control and 119 % of control, the T/C (dose: 50.0 mg/kg/injection, schedule: Q01DX001 (ip), vehicle: saline with Tween-80) was 115 % of control and the T/C (dose: 100.0 mg/kg/injection, schedule: Q01DX001 (ip), vehicle: saline with Tween-80) was 159 % of control and 161 % of control. For the same compound, the T/C (dose: 200.0 mg/kg/injection, schedule: Q01DX001 (ip), vehicle: saline with Tween-80) was 168 % of control and 182 % of control.

`O=C1C2=C(C(=O)c3cnccc31)C1C=CC2CC1` (centres undefined) was tested, and the T/C (dose: 12.5 mg/kg/injection, schedule: Q01DX009 (ip), vehicle: DMSO) was 115 % of control, the T/C (dose: 25.0 mg/kg/injection, schedule: Q01DX009 (ip), vehicle: DMSO) was 98 % of control and the T/C (dose: 50.0 mg/kg/injection, schedule: Q01DX009 (ip), vehicle: DMSO) was 111 % of control. For the same compound, the T/C (dose: 100.0 mg/kg/injection, schedule: Q01DX009 (ip), vehicle: DMSO) was 98 % of control.

In the case of `O=NNc1ccc(Br)cn1`, the T/C [1] is reported as 110 % of control and 112 % of control, the T/C (dose: 3.12 mg/kg/injection, schedule: Q01DX009 (ip), vehicle: water) is reported as 119 % of control and 124 % of control and the T/C [2] is reported as 158 % of control and 170 % of control.

With `CCOC(=O)C1=C(C#N)C2(CCC(OCc3ccccc3)CC2)C(=O)O1` (centres undefined) the T/C [3] was 105 % of control, the T/C (dose: 12.5 mg/kg/injection, schedule: Q01DX009 (ip), vehicle: suspension in saline) was 105 % of control and the T/C [4] was 101 % of control. The T/C (dose: 25.0 mg/kg/injection, schedule: Q01DX009 (ip), vehicle: suspension in saline) was 96 % of control, the T/C [5] was 94 % of control and the T/C (dose: 50.0 mg/kg/injection, schedule: Q01DX009 (ip), vehicle: suspension in saline) was 107 % of control. The T/C [6] was 111 % of control, the T/C (dose: 100.0 mg/kg/injection, schedule: Q01DX009 (ip), vehicle: suspension in saline) was 109 % of control and the T/C (dose: 200.0 mg/kg/injection, schedule: Q01DX009 (ip), vehicle: suspension in saline) was 107 % of control.

In the case of `COc1cccc2c1C(=O)c1c(O)c3c(c(O)c1C2=O)C[C@@](O)(C(=O)CO)C[C@@H]3OC1CC(NC(=O)C(N)CC(C)C)C(O)C(C)O1` (some centres undefined), the T/C (dose: 6.25 mg/kg/injection, schedule: Q01DX001 (ip), vehicle: saline) is reported as 192 % of control, the T/C (dose: 12.5 mg/kg/injection, schedule: Q01DX001 (ip), vehicle: saline) is reported as 192 % of control and the T/C (dose: 25.0 mg/kg/injection, schedule: Q01DX001 (ip), vehicle: saline) is reported as 269 % of control. The T/C (dose: 50.0 mg/kg/injection, schedule: Q01DX001 (ip), vehicle: saline) was 183 % of control.

`CCN(CC)CCn1[nH]c2c3ccc(=O)cc3sc3c(NCCN)ccc1c32` was tested, and the T/C [1] was 161 % of control, the T/C (dose: 1.7 mg/kg/injection, schedule: Q01DX009 (ip), vehicle: water) was 189 % of control and the T/C (dose: 2.7 mg/kg/injection, schedule: Q01DX009 (ip), vehicle: water) was 225 % of control. The T/C (dose: 4.5 mg/kg/injection, schedule: Q01DX009 (ip), vehicle: water) was 270 % of control, the T/C (dose: 7.5 mg/kg/injection, schedule: Q01DX009 (ip), vehicle: water) was 281 % of control and the T/C [2] was 161 % of control and 264 % of control.

For `O=C1c2ccccc2CCC1Br` (centres undefined), the T/C (dose: 1.5 mg/kg/injection, schedule: Q01DX009 (ip), vehicle: DMSO) was 87 % of control, the T/C (dose: 3.0 mg/kg/injection, schedule: Q01DX009 (ip), vehicle: DMSO) was 86 % of control and 87 % of control and the T/C (dose: 6.0 mg/kg/injection, schedule: Q01DX009 (ip), vehicle: DMSO) was 91 % of control. For the same compound, the T/C (dose: 12.0 mg/kg/injection, schedule: Q01DX009 (ip), vehicle: DMSO) was 94 % of control.

For `Clc1cc(Cl)c(C[N+]23CN4CN(CN(C4)C2)C3)cc1Cl`, the T/C [7] was 101 % of control, the T/C [3] was 102 % of control and the T/C [8] was 105 % of control. The T/C [4] was 100 % of control, the T/C [9] was 102 % of control and the T/C [5] was 106 % of control. For the same compound, the T/C [10] was 107 % of control and the T/C [6] was 111 % of control.

`O=NN(CCCl)C(=O)NC1CCC(=O)NC1=O` (centres undefined) was tested, and the T/C (dose: 0.8 mg/kg/injection, schedule: Q01DX005 (ip), vehicle: saline + alcohol) was 118 % of control, the T/C (dose: 0.8 mg/kg/injection, schedule: Q01DX005 (iv), vehicle: saline + alcohol) was 96 % of control and the T/C (dose: 1.6 mg/kg/injection, schedule: Q01DX005 (ip), vehicle: saline + alcohol) was 155 % of control. The T/C (dose: 2.0 mg/kg/injection, schedule: Q01DX005 (ip), vehicle: saline + alcohol) was 175 % of control, the T/C (dose: 2.0 mg/kg/injection, schedule: Q01DX005 (iv), vehicle: saline + alcohol) was 102 % of control and the T/C (dose: 3.2 mg/kg/injection, schedule: Q01DX005 (ip), vehicle: saline + alcohol) was 197 % of control. For the same compound, the T/C (dose: 3.2 mg/kg/injection, schedule: Q01DX005 (iv), vehicle: saline + alcohol) was 151 % of control, the T/C (dose: 4.0 mg/kg/injection, schedule: Q01DX001 (ip), vehicle: saline + alcohol) was 195 % of control and the T/C (dose: 4.0 mg/kg/injection, schedule: Q01DX001 (iv), vehicle: saline + alcohol) was 124 % of control. For the same compound, the T/C (dose: 4.0 mg/kg/injection, schedule: Q01DX005 (ip), vehicle: saline + alcohol) was 300 % of control, the T/C (dose: 4.0 mg/kg/injection, schedule: Q01DX005 (iv), vehicle: saline + alcohol) was 180 % of control and the T/C (dose: 6.4 mg/kg/injection, schedule: Q01DX005 (ip), vehicle: saline + alcohol) was 275 % of control. For the same compound, the T/C (dose: 8.0 mg/kg/injection, schedule: Q01DX001 (ip), vehicle: saline + alcohol) was 200 % of control and 291 % of control, the T/C (dose: 8.0 mg/kg/injection, schedule: Q01DX001 (iv), vehicle: saline + alcohol) was 162 % of control and the T/C (dose: 8.0 mg/kg/injection, schedule: Q01DX005 (ip), vehicle: saline + alcohol) was 105 % of control. For the same compound, the T/C (dose: 8.0 mg/kg/injection, schedule: Q01DX005 (iv), vehicle: saline + alcohol) was 150 % of control, the T/C (dose: 8.0 mg/kg/injection, schedule: Q01DX005 (oral), vehicle: saline + alcohol) was 210 % of control and the T/C (dose: 16.0 mg/kg/injection, schedule: Q01DX001 (ip), vehicle: saline + alcohol) was 255 % of control and 317 % of control. The T/C (dose: 16.0 mg/kg/injection, schedule: Q01DX001 (iv), vehicle: saline + alcohol) was 194 % of control and 216 % of control, the T/C (dose: 16.0 mg/kg/injection, schedule: Q01DX001 (oral), vehicle: saline + alcohol) was 183 % of control and the T/C (dose: 32.0 mg/kg/injection, schedule: Q01DX001 (oral), vehicle: saline + alcohol) was 89 % of control.

For `O=C(N/N=C/c1cccc(O)c1O)N/N=C/c1cccc(O)c1O`, the T/C [7] was 118 % of control, the T/C [8] was 112 % of control and the T/C [9] was 116 % of control. For the same compound, the T/C [10] was 106 % of control and the T/C [11] was 106 % of control.

`CCN(CC)c1ccc2cc(-c3nc4ccccc4n3C)c(=O)oc2c1` was tested, and the T/C (dose: 6.25 mg/kg/injection, schedule: Q01DX009 (ip), vehicle: Klucel (hydroxypropylcellulose) (HPC)) was 94 % of control and 101 % of control, the T/C (dose: 12.5 mg/kg/injection, schedule: Q01DX009 (ip), vehicle: Klucel (hydroxypropylcellulose) (HPC)) was 102 % of control and 106 % of control and the T/C [12] was 108 % of control and 111 % of control.

`O=C(CCl)Oc1ccc(-c2ccccc2)cc1Br` was tested, and the T/C [9] was 98 % of control, the T/C [10] was 90 % of control and the T/C [11] was 87 % of control.

For `Oc1c(Cl)cc(Cl)cc1C=NCCSc1ccc(Cl)cc1`, the T/C [12] was 98 % of control and 102 % of control, the T/C (dose: 50.0 mg/kg/injection, schedule: Q01DX009 (ip), vehicle: Klucel (hydroxypropylcellulose) (HPC)) was 92 % of control and 102 % of control and the T/C [13] was 113 % of control and 93 % of control. For the same compound, the T/C [14] was 92 % of control and 103 % of control.

`C/C(=N\NC(=S)N1CCN(c2ccccn2)CC1)c1ccccn1` was tested, and the T/C (dose: 6.25 mg/kg/injection, schedule: Q01DX009 (ip), vehicle: water) was 99 % of control, the T/C [2] was 99 % of control and the T/C (dose: 25.0 mg/kg/injection, schedule: Q01DX009 (ip), vehicle: water) was 111 % of control.

For `O=C[C@@H](CO)O[C@H](C=O)c1c[nH]c(=O)[nH]c1=O`, the T/C [4] was 105 % of control and the T/C [5] was 110 % of control.

`C=CCSc1ncnc2c1ncn2C1OC(CO)C(O)C1O` (centres undefined) was tested, and the T/C (dose: 37.5 mg/kg/injection, schedule: Q01DX009 (ip), vehicle: saline with Tween-80) was 102 % of control, the T/C (dose: 75.0 mg/kg/injection, schedule: Q01DX009 (ip), vehicle: saline with Tween-80) was 90 % of control and the T/C (dose: 150.0 mg/kg/injection, schedule: Q01DX009 (ip), vehicle: saline with Tween-80) was 97 % of control.

`CS(=O)(=O)OCCn1c(=O)n(CCOS(C)(=O)=O)c(=O)n(CCOS(C)(=O)=O)c1=O` was tested, and the T/C [13] was 97 % of control, the T/C [14] was 95 % of control and the T/C (dose: 400.0 mg/kg/injection, schedule: Q01DX009 (ip), vehicle: Klucel (hydroxypropylcellulose) (HPC)) was 86 % of control.
